Measurements reported in patent US20040054182A1, “1h-imidazopyridine derivatives” (priority 2000, published 2004).
Where a name gives a salt, the structure may show the parent alone.

Assays:
human IL-1 beta = test: Inhibitory action against IL-1 beta production in LPS-stimulated human PBMCs (sandwich ELISA of culture supernatant); type: cell-based; details: 16 hours
Procedure: (§1) As an example of the excellent effects of the compounds of the present invention, experimental results of inhibitory actions against production of TNF-alpha and IL-1 beta in human cells will be shown below.
(§2) About 50 mL of whole blood was collected from each adult healthy volunteer by venepuncture, and poured into plastic tubes which containing 170 micro L of Novo-heparin 1000 (produced by Novo-Nordisk). Then, PBMCs (Peripheral Blood Mononuclear Cells) were separated using LeucoPREP™ (produced by Becton Dickinson) lymphocyte separation tube, and cultured with RPMI-1640 medium (produced by Nissui Pharmaceutical Co.) containing 2 mM L-glutamine (produced by Life Technologies), 2.5 U/mL penicillin-2.5 micro g/mL streptomycin solution (produced by Life Technologies) supplemented with 10% fetal calf serum (produced by Intergen Company) at 1×10^6 cells/mL.
(§3) Test compounds were dissolved in distilled ultra-pure water, dimethyl sulfoxide or 0.1 M hydrochloric acid at 20 micro M as far as possible, and then sequentially diluted with saline and used.
(§4) A hundred and eighty micro L of prepared human PBMCs were added to each well of 96-well plate (MicroTest III™ tissue culture plate; produced by Becton Dickinson) containing 10 micro L of adequate concentrations solution of test compounds. Then 30 minutes after, 10 micro L of 20 micro g/mL lipopolysaccharide (LPS) was added to each well, and cells in the well plate were covered with plastic lid and incubated for 16 hours at 37° C. in an atmosphere of 5% CO2.
(§5) The levels of human TNF-alpha and human IL-1 beta in culture supernatant were measured by constructed sandwich enzyme-linked immunosorbent assay method. Ninety-six-well microtiter plates were coated with diluted anti-cytokine antibody (capture/first-antibody). After washing the wells, the culture supernatant was diluted appropriately, added to each well and incubated. Then detection/second-antibody against cytokine and HRP (horseradish peroxidase)-conjugated/third-antibody against detection-antibody were added to wells sequentially, with interposed washing processes. After the final washing process, reaction of calorimetric quantification was started by addition of tetramethylbenzidine solution (produced by DAKO) to each well. After quenching the reaction by addition of 0.5 M sulfuric acid, optical absorbance of each well at 450 nm was measured by M-VmaxTM kinetic microplate reader (produced by Molecular Devices). Concentrations of cytokines were determined by Softmax™ (produced by Molecular Devices) quantification software in comparison with calibration curve derived from corresponding recombinant cytokines as standard. For measurement of human TNF-alpha, monoclonal mouse anti-human TNF-alpha (produced by ENDOGEN), polyclonal rabbit anti-human TNF-alpha (produced by Pharma Biotechnologie Hannover), peroxidase-conjugated donkey anti-rabbit IgG antibodies (produced by Jackson ImmunoRes. Labs.), and recombinant human TNF-alpha (produced by INTERGEN Company) were used for the capture-, detection-, HRP-conjugated-antibodies and the standard for calibration curve, respectively. […]

human TNF-alpha = test: Inhibitory action against TNF-alpha production in LPS-stimulated human PBMCs (sandwich ELISA of culture supernatant); type: cell-based; details: 16 hours
Procedure: as §1, §2, §3, §4, §5

[1] = administered concentration 0.01 micro mol/L
[2] = administered concentration 0.03 micro mol/L
[3] = administered concentration 0.10 micro mol/L
[4] = administered concentration 0.3 micro mol/L
[5] = administered concentration 1.0 micro mol/L

SMILES | melting point | other results
FC(F)(F)c1nc2ccccc2c2c1nc(-c1ccc[nH]1)n2CCC1CNCCO1 (centres unmarked) [Example 102, 1-[2-(2-Morpholinyl)ethyl]-2-(2-pyrrolyl)-4-trifluoromethyl-1H-imidazo[4,5-c]-quinoline] |  | Inhibitory action against IL-1 beta production in human cells (inhibitory percentages of cytokine production) (human IL-1 beta; [1]): 81%; Inhibitory action against IL-1 beta production in human cells (inhibitory percentages of cytokine production) (human IL-1 beta; [2]): 67%; Inhibitory action against IL-1 beta production in human cells (inhibitory percentages of cytokine production) (human IL-1 beta; [3]): 48%; Inhibitory action against IL-1 beta production in human cells (inhibitory percentages of cytokine production) (human IL-1 beta; [4]): 0%; Inhibitory action against IL-1 beta production in human cells (inhibitory percentages of cytokine production) (human IL-1 beta; [5]): 0%; Inhibitory action against TNF-alpha production in human cells (inhibitory percentages of cytokine production) (human TNF-alpha; [1]): 96%; Inhibitory action against TNF-alpha production in human cells (inhibitory percentages of cytokine production) (human TNF-alpha; [2]): 84%; Inhibitory action against TNF-alpha production in human cells (inhibitory percentages of cytokine production) (human TNF-alpha; [3]): 25%; Inhibitory action against TNF-alpha production in human cells (inhibitory percentages of cytokine production) (human TNF-alpha; [4]): 23%; Inhibitory action against TNF-alpha production in human cells (inhibitory percentages of cytokine production) (human TNF-alpha; [5]): 27%
Fc1ccc2c(c1)nc(C(F)(F)F)c1nc(-c3ccco3)n(CCC3CCNCC3)c12 (as salt: trifluoroacetate) (hydrate or solvate) | 239 to 241 °C (dec.) | 
Fc1ccc2c(c1)nc(C(F)(F)F)c1nc(-c3ccc[nH]3)n(CCC3CCNCC3)c12 (as salt: trifluoroacetate) (hydrate or solvate) [Example 81, 7-Fluoro-1-[2-(4-piperidyl)ethyl]-2-(2-pyrrolyl)-4-trifluoromethyl-1H-imidazo-[4,5-c]quinoline] | 252 to 254 °C (dec.) | 
CN(C)CCn1c(-c2ccc[nH]2)nc2c(C(F)(F)F)nc3ccccc3c21 (as salt: fumarate) [Example 51, 1-(2-Dimethylaminoethyl)-2-(2-pyrrolyl)-4-trifluoromethyl-1H-imidazo[4,5-c]-quinoline] | 228 to 230 °C (dec.) | 
CNCC(=O)NCCn1c(-c2ccccc2)nc2c(C(F)(F)F)nc3ccccc3c21 [Example 127, 2-Methylamino-N-[2-(2-phenyl-4-trifluoromethyl-1H-imidazo[4,5-c]quinolin-1-yl)-ethyl]acetamide] | 208 to 209 °C | 
FC(F)(F)c1nc2cc(Cl)ccc2c2c1nc(-c1nccs1)n2CCC1CCNCC1 [Example 74, 7-Chloro-1-[2-(4-piperidyl)ethyl]-2-(2-thiazolyl)-4-trifluoromethyl-1H-imidazo-[4,5-c]quinoline] | 232.5 to 234 °C (dec.) | 
O=C(CCl)NCCn1c(-c2ccccc2)nc2c(C(F)(F)F)nc3ccccc3c21 [Example 124, 2-chloro-N-[2-(2-phenyl-4-trifluoromethyl-1H-imidazo[4,5-c]quinolin-1-yl)ethyl]acetamide] | 230.5 to 231.5 °C | 
Cc1ccc2c(c1)nc(C(F)(F)F)c1nc(-c3cccs3)n(CCC3CCNCC3)c12 (as salt: trifluoroacetate) (hydrate or solvate) [Example 91, 7-Methyl-1-[2-(4-piperidyl)ethyl]-2-(2-thienyl)-4-trifluoromethyl-1H-imidazo-[4,5-c]quinoline] | 236 to 238 °C (dec.) | 
FC(F)(F)c1nc2cc(Cl)ccc2c2c1nc(-c1ccco1)n2CCC1CCNCC1 (as salt: trifluoroacetate) | 219 to 221 °C (dec.) | 
Cc1ccc2c(c1)nc(C(F)(F)F)c1nc(-c3ncc[nH]3)n(CCC3CCNCC3)c12 (as salt: trifluoroacetate) (hydrate or solvate) [Example 89, 2-(2-1H-Imidazolyl)-7-methyl-1-[2-(4-piperidyl)ethyl]-4-trifluoromethyl-1H-imidazo[4,5-c]quinoline] | 303 to 305 °C (dec.) | 
FC(F)(F)c1nc2cc(Cl)ccc2c2c1nc(C1CCCC1)n2CCC1CCNCC1 (as salt: trifluoroacetate) | 246 to 248 °C (dec.) | 
FC(F)(F)c1nc2ccccc2c2c1nc(-c1nccs1)n2CCC1CCNCC1 [Example 70, 1-[2-(4-Piperidyl)ethyl]-2-(2-thiazolyl)-4-trifluoromethyl-1H-imidazo[4,5-c]-quinoline] | 199 to 200 °C | 
FC(F)(F)c1nc2ccccc2c2c1nc(-c1ccc[nH]1)n2CCC1CNCCO1 (centres unmarked) (as salt: trifluoroacetate) [Example 102, 1-[2-(2-Morpholinyl)ethyl]-2-(2-pyrrolyl)-4-trifluoromethyl-1H-imidazo[4,5-c]-quinoline] | 254 to 258 °C (dec.) | 
FC(F)(F)c1nc2ccccc2c2c1nc(-c1ccccc1)n2CCN1CCNCC1 [Example 99, 2-Phenyl-1-[2-(1-piperazinyl)ethyl]-4-trifluoromethyl-1H-imidazo[4,5-c]-quinoline] | 187 to 188 °C | 
NCCn1c(-c2ccc[nH]2)nc2c(C(F)(F)F)nc3ccccc3c21 [Example 109, 1-(2-Aminoethyl)-2-(2-pyrrolyl)-4-trifluoromethyl-1H-imidazo[4,5-c]quinoline] | 195.5 to 196.5 °C | 
Fc1ccc2c(c1)nc(C(F)(F)F)c1nc(-c3cccs3)n(CCC3CCNCC3)c12 (as salt: trifluoroacetate) (hydrate or solvate) [Example 85, 7-Fluoro-1-[2-(4-piperidyl)ethyl]-2-(2-thienyl)-4-trifluoromethyl-1H-imidazo-[4,5-c]quinoline] | 234 to 235 °C (dec.) | 
c1ccc(-c2nc3c(C4CC4)nc4ccccc4c3n2CCC2CCNCC2)cc1 (as salt: fumarate) (hydrate or solvate) [Example 110, 4-Cyclopropyl-2-phenyl-1-[2-(4-piperidyl)ethyl]-1H-imidazo[4,5-c]quinoline] | 142.5 to 147 °C (dec.) | 
